Experimental data as given in US20140235578A1, “METHODS FOR TREATING NEOPLASIA AND FOR IDENTIFYING COMPOSITIONS USEFUL IN SUCH THERAPY” (priority 2007, published 2014).

Columns and labels:
[1] = system: A549 lung carcinoma; assay: Cytotoxicity IC50 against A549 lung carcinoma; format: cell-based
[2] = molecular target: purified recombinant human Top2β (Homo sapiens, UniProt Q02880); assay: In vitro DNA cleavage assay (Bodley et al.), Top2β; format: biochemical; conditions: for Poisoning activity against Top2β: DNA cleavage, purified recombinant human Top2β; for activity against Top2β: as stated in Table 2; on Poisoning activity against Top2β: key: each + represent roughly 10-fold in activity; −: non-detectable
Description: (§1) Various β-carboline derivatives of compounds of Formula I above were evaluated for their antineoplastic activities and for their ability to preferentially poison Top2 isozymes. These compounds (i.e. those in Table 1 below) were also evaluated for Top2 isozyme-specific poisoning using the in vitro DNA cleavage assay described by Bodley et al. In the studies, purified recombinant human Top2 isozymes were used.
(§2) Reactions were terminated with SDS (final 1%) and digested with proteinase K (100 μg/ml at 50° C. for 1 hr). After adding gel loading solution, the reaction mixtures were analyzed by agarose gel electrophoresis. Gel was dried and exposed to x-ray films for visualization.
(§3) In certain preferred embodiments, the methods for identifying Top2α preferential poisons include using in vitro DNA cleavage assays. In the in vitro DNA cleavage assay, compounds as potential Top2 poisons are tested for their isozyme specificities through this assay using purified recombinant human Top2α (“hTop2α”) and human Top2β (“h Top2β”) isozymes. In this assay, the ability of various Top2 poisons to induce Top2 isozyme-mediated DNA cleavage of ^32P end-labeled linearized plasmid DNA was assessed. Thus, the relative specificity of various Top2 poisons against Top2 isozymes can be qualitatively determined based on the depletion of band intensities and/or the intensities of bands representing the cleavage products.

[3] = molecular target: purified recombinant human Top2α (Homo sapiens, UniProt P11388); assay: In vitro DNA cleavage assay (Bodley et al.), Top2α; format: biochemical; conditions: as stated in Table 2
Description: as §1, §2, §3

[4] = system: H9C2 cardiomyocytes; assay: γ-H2AX DNA damage signal by Western blotting; format: cell-based; conditions: for effect on doxorubicin-induced γ-H2AX: ROS scavenger 100 μg/ml, added 30 min prior to doxorubicin
Description: Cell lysates were analyzed by Western blotting using anti-γ-H2AX or anti-α-tubulin antibody (for assessing protein loading). […] Cells were then lysed and analyzed by Western blotting using anti-γ-H2AX or anti-α-tubulin antibody. […] Cells were then lysed and analyzed by Western blotting using anti-γ-H2AX or anti-α-tubulin antibody.
(§4) Vitamin C and NAC were added 30 min prior to doxorubicin. Cell lysates were then analyzed by Western blotting using anti-γ-H2AX or anti-α-tubulin antibody. […] Cell lysates were then analyzed by Western blotting (upper panel) using anti-γ-H2AX or anti-α-tubulin antibody. Quantification of γ-H2AX signals is shown in the lower panel. C, H9C2 cells were treated with 0.1% DMSO (labeled DMSO), bortezomib (1 μM) or MG132 (4 μM) for 30 min, followed by co-treatment with either 0.1% DMSO (labeled control) or 0.5 μM doxorubicin (labeled Doxo) for 1.5 hrs. Neutral comet assay was then performed as described in Materials and Methods. The average comet tail moments were plotted as histograms (mean±SEM). *p-value<0.001, t-test.

[5] = system: melanomas in the skin of DMBA-initiated TOP2β+ and skin-specific top2β knockout mice; assay: Carcinogenesis assay using a mouse skin model; format: in vivo
Text: Skin-specific top2β knockout mice and their TOP2β^+ controls were derived from the top2β^+/flox2 and top2β^flox2/flox2 lines previously reported. The top2β^flox2 allele contains two loxP sites flanking three Top2β exons that encode a region of TopIIβ containing the active-site tyrosyl residue; this allele expresses wild-type TopIIβ, but is converted to a null allele top2β^Δ2 upon exposure to Cre recombinase. Skin-specific deletion within the floxed top2β allele is achieved by crossing the top2β^flox2 lines with mice expressing Cre recombinase from the keratin 14 promoter (kindly provided by Andrew P. McMahon, Harvard University). The K14-Cre transgenic mouse line expresses Cre in the keratinocytes of the epidermis and the hair follicles during prenatal and postnatal development. Mice with the genotype K14-Cre top2β^flox2/flox2, K14-Cre top2β^+/flox2, top2β^flox2/flox2 and top2β^+/flox2 were generated and used in this study; with the exception of K14-Cre top2β^flox2/flox2 mice, which lack TopIIβ in skin cells, all the others are phenotypically Top2β^+ in all tissues.
Seven-week old skin-specific top2β knockout mice and their TOP2β^+ controls were used in the study. The back of each mouse was shaved two days prior to treatment. The tumor initiator DMBA (1 μmol in 100 μl of DMSO) was applied once in the first week, followed by various treatments (two applications per week) for six groups of animals: Group 1, DMSO (100 μl), 5 applications; Group 2, VP-16 (10 μmol in 100 μl DMSO), 5 applications; Group 3, VP-16 (20 μmol in 200 μl of DMSO), 3 applications; Group 4, the tumor promoter TPA (phorbol 12-tetradecanoate 13-acetate, 17 nmol in 100 μl DMSO), 8 applications; Group 5, VP-16 (5 μmol in 100 μl DMSO), 5 application; Group 6, VP-16 (5 μmol in 100 μl DMSO), 10 applications. Mice were examined every week for appearance of melanomas on their skins. The number of melanomas visibly notable was scored at the end of the 16th week. The average numbers of tumors induced in different treatment groups were compared using Student's t-test.

[6] = system: control-shRNA-PC12 and Top2β-shRNA-PC12 cells; assay: 4-day MTT assay in PC12 knockdown cells; format: cell-based, rat
Description: (§5) Primary MEFs were isolated from E13.5 Top2β^+/+, Top2β^+/Δ2 and Top2β^Δ2/Δ2 mouse embryos, as described (the Top2β^Δ2 allele contains a deletion in the coding region of the active-site tyrosyl residue). SV40-transformed MEFs were obtained by transformation with pAN2 DNA as described. Cells were maintained in DMEM supplemented with 10% FetalPlex animal serum complex (Gemini Bio-Products), L-glutamine (2 mM), penicillin (100 units/ml), and streptomycin (100 μg/ml) in a 37° C. incubator with 5% CO2. PC12 cells were first clonally selected and then used to generate Top2β-shRNA and control-shRNA knockdown cells. A rat Top2β-shRNA sequence (5′-[…]-3′) was generated based on the 643-bp partial rat TopIki cDNA sequence (GenBank™ accession number D14046). Duplex (5′-[…]-3′) DNA was made and cloned into the LentiLox 3.7 vector (obtained from Dr. van Parijs, MIT). The control-shRNA sequence (5′-[…]-3′) was created by altering three nucleotides in the rat Top2β-shRNA sequence (underlined). The duplex (5′-[…]-3′) DNA was cloned into the LentiLox 3.7 vector. […]
(§6) Top2β contributes minimally to VP-16 cytotoxicity in transformed cells. […] To test if Top2β is also important for VP-16 cytotoxicity, we determined the IC50 of VP-16 in two pairs of transformed Top2β knockout/knockdown cells using 4-day MTT assay (in triplicates). […]

[7] = system: Top2β+/− and Top2β−/− MEFs; assay: 4-day MTT assay in transformed MEFs; format: cell-based, mouse; conditions: triplicates
Description: as §5, §6

[8] = system: Top2β; assay: Top2β protein level by Western blotting in H9C2 cells; format: cell-based; conditions: 1 μM co-treatment
Description: (§7) The amount of Top2 cleavage complexes was measured by a band depletion assay as described in Materials and Methods. Cells were lysed either immediately or after reversal of the Top2 cleavage complexes (labeled R+250). Cell lysates were analyzed by Western blotting using anti-Top2α/Top2β or anti-α-tubulin antibody. […] Cells were then lysed and protein levels of Top2α, and Top2β isozymes were determined by Western blotting. […] Cell lysates were immunoblotted using anti-Top2β antibody. D, H9C2 cells were treated with ICRF187 (100 μM) for 4 hrs, followed by treatment with doxorubicin (Doxo, 0, 0.5 and 1 μM) for 1.5 hrs. Neutral comet assay was then performed as described in Materials and Methods. The average comet tail moments were plotted as histograms (mean±SEM). * p-value<0.001, t-test.

[9] = system: H9C2 cardiomyocytes; format: cell-based; conditions: bortezomib 1 μM or MG132 4 μM co-treatment, 0.5 μM doxorubicin, p<0.001
Description: as §4
as §7, with “Neutral comet assay was then performed as described in Materials and Methods. The average comet tail moments were plotted as histograms (mean±SEM). * p-value<0.001, t-test.” left out

Sequence of purified recombinant human Top2β (Q02880 whole entry): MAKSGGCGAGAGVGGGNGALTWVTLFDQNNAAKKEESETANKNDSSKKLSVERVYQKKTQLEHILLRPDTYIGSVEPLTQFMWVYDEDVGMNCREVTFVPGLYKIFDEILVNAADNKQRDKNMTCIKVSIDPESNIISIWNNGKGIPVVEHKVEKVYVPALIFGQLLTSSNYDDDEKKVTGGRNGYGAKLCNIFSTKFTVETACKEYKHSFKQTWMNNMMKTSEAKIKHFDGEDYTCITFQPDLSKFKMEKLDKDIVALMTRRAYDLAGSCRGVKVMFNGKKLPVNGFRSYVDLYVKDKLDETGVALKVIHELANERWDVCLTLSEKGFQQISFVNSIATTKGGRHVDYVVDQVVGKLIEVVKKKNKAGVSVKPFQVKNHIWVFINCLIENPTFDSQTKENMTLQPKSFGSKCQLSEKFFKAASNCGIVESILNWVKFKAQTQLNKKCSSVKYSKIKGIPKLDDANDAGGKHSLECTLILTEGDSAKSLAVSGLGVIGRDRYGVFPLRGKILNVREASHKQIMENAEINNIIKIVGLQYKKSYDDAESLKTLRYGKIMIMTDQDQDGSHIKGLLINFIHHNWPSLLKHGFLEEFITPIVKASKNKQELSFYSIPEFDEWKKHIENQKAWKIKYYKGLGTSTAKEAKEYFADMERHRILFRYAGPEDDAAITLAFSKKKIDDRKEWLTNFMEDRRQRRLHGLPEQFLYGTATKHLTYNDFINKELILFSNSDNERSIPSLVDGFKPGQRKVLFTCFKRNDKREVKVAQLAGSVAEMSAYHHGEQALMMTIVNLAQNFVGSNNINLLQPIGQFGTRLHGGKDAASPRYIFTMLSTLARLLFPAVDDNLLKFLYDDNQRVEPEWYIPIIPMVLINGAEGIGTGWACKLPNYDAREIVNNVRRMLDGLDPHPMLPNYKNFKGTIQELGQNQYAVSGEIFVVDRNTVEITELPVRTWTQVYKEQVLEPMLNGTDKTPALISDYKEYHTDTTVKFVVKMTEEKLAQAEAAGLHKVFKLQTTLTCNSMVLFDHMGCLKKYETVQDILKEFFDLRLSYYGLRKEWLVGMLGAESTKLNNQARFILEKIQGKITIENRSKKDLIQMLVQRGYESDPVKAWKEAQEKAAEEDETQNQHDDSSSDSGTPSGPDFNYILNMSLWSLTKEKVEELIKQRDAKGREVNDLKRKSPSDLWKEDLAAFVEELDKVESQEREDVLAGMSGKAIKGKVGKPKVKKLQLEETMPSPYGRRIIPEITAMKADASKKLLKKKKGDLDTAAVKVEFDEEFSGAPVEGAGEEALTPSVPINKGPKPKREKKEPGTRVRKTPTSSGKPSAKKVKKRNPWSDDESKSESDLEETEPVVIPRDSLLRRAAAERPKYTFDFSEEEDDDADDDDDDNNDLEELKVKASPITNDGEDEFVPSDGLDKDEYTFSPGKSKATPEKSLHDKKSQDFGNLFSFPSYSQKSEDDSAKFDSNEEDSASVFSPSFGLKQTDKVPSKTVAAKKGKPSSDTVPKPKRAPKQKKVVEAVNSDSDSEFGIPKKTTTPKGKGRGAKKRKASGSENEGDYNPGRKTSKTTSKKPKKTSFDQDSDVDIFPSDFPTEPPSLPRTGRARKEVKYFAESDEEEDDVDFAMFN
Sequence of purified recombinant human Top2α (P11388 whole entry): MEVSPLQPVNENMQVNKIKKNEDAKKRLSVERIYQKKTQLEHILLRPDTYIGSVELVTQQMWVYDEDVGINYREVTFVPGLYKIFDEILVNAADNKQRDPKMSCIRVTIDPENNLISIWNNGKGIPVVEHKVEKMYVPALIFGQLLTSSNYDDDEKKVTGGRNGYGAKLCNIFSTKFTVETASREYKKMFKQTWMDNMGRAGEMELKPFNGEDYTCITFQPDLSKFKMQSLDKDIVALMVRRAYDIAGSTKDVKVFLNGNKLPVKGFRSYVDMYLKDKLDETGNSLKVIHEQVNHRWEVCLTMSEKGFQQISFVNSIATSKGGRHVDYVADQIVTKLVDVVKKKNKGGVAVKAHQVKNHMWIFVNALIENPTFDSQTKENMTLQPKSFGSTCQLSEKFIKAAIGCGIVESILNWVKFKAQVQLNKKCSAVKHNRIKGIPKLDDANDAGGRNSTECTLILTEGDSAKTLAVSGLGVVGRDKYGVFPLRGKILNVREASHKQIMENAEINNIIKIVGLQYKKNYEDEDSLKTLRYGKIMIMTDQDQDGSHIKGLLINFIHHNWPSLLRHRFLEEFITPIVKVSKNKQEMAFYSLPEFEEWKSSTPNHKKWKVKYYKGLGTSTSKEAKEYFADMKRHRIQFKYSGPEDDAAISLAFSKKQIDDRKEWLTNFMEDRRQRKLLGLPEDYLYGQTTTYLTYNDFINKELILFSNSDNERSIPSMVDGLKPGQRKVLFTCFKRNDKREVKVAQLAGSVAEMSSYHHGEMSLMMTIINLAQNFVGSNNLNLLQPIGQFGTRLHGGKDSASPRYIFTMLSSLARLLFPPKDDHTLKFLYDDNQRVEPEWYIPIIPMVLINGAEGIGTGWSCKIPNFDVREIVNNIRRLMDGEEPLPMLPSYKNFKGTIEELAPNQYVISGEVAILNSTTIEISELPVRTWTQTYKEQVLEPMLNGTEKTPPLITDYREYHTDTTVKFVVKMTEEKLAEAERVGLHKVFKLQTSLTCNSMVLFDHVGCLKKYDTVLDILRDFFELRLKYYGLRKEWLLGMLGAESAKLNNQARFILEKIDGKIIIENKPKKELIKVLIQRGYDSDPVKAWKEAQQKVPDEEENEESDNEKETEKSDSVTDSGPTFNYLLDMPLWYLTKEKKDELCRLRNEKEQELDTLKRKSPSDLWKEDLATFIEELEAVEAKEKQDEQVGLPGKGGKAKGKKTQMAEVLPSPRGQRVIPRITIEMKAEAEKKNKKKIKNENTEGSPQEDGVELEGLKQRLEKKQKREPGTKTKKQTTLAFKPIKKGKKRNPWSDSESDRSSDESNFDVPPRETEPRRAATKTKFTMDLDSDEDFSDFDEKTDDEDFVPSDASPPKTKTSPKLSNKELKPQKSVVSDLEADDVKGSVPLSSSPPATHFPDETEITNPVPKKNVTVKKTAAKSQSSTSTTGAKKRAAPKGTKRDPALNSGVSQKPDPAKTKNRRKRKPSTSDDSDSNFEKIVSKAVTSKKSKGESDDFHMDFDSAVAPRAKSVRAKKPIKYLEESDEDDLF

| Compound | IC50 [1] | Poisoning activity against Top2β [2] | activity against Top2β [2] | activity against Top2α [3] | other results |
| --- | --- | --- | --- | --- | --- |
| 1,2-dibenzyl-9-fluorobenzyl-9H-pyrido[3,4-b]indol-2-ium [compound 9] | 4200 nM | − | non-detectable | roughly 20 fold |  |
| 2,9-dibenzyl-1-chlorophenyl-9H-pyrido[3,4-b]indol-2-ium [compound 8] | 6100 nM | − | non-detectable | roughly 20 fold |  |
| 9-butyl-1-chlorobenzyl-2-(3-phenylpropyl)-9H-pyrido[3,4-b]indol-2-ium [compound 10] | < 1700 nM | + | 10 fold | roughly 20 fold |  |
| COc1cccc2c1C(=O)c1c(O)c3c(c(O)c1C2=O)C[C@@](O)(C(=O)CO)C[C@@H]3O[C@H]1C[C@H](N)[C@H](O)[C@H](C)O1 [Doxorubicin, doxorubicin] |  |  |  |  | induction of γ-H2AX ([4]; 0.1-10 μM, 1 hr): concentration-dependent up to 1 μM |
| CC(=O)N[C@@H](CS)C(=O)O [N-Acetyl Cysteine] |  |  |  |  | effect on doxorubicin-induced γ-H2AX [4]: unaffected |
| CCCCCCCCCCCCCC(=O)O[C@@H]1[C@@H](C)[C@@]2(O)[C@@H](C=C(CO)C[C@]3(O)C(=O)C(C)=C[C@@H]23)[C@@H]2C(C)(C)[C@]12OC(C)=O [TPA, phorbol 12-tetradecanoate 13-acetate] |  |  |  |  | ratio of average number of melanomas per mouse, Top2β+ versus Top2β− mice ([5]; Group 4, TPA treatment): 1.3; increase in the average number of melanomas per mouse versus DMSO ([5]; TOP2β+ mice, Group 4, 17 nmol × 8 applications): 130%; increase in skin melanoma versus DMSO ([5]; TOP2β− mice, Group 4, 17 nmol × 8 applications): 150% |
| COc1cc([C@@H]2c3cc4c(cc3[C@@H](O[C@@H]3O[C@@H]5CO[C@@H](C)O[C@H]5[C@H](O)[C@H]3O)[C@H]3COC(=O)[C@H]23)OCO4)cc(OC)c1O [VP16, etoposide] |  |  |  |  | IC50 ([6]; Top2β-shRNA-PC12 cells): 1600 ± 100 nM; IC50 ([6]; control-shRNA-PC12 cells): 1900 ± 100 nM; IC50 ([7]; Top2β+/− MEFs): 38 ± 7 nM; IC50 ([7]; Top2β−/− MEFs): 40 ± 6 nM; more melanomas in TOP2β+ mice than in skin-specific Top2β knockout mice ([5]; mouse, in vivo): 2-13 fold |
| CC(C)C[C@H](NC(=O)[C@H](Cc1ccccc1)NC(=O)c1cnccn1)B(O)O [bortezomib] |  |  |  |  | effect on dexrazoxane-induced degradation of Top2β [8]: abolished; effect on doxorubicin-induced comet tail moment [9]: significantly reduced |
| CCCCOc1ccc2c3cc[n+](Cc4ccccc4)c(C)c3n(CC(C)C)c2c1 [compound 3, 2-benzyl-7-butoxy-9-isobutyl-1-methyl-9H-pyrido[3,4-b]indol-2-ium] | 4600 nM | − | non-detectable | roughly 20 fold |  |
| Cc1c2c(cc[n+]1Cc1ccccc1)c1ccc(OCC(C)C)cc1n2CC(C)C [compound 4, 2-benzyl-7-isobutoxy-9-isobutyl-1-methyl-9H-pyrido[3,4-b]indol-2-ium] | 5300 nM | − | non-detectable | roughly 20 fold |  |
| O=C1O[C@H]([C@@H](O)CO)C(O)=C1O [vitamin C] |  |  |  |  | effect on doxorubicin-induced γ-H2AX [4]: unaffected |
| ICRF-193 |  |  |  |  | effect on doxorubicin (0.5 μM)- and VP-16 (10 μM)-induced γ-H2AX [4]: abolished |
